Assay results from paper PMC7714403 (JCI Insight, 2020).

Assays:
Assay in all cases: KiNativ, OCI cells live cell
[1] = system: KSR1, KSR2; assay type: cell-based, human; details: labeling site Activation Loop, peptide SKNVFYDNGK
[2] = target: T1, LATS1 (Homo sapiens, UniProt O95835); assay type: cell-based; details: 2 h
T1 sequence (O95835 1-1130): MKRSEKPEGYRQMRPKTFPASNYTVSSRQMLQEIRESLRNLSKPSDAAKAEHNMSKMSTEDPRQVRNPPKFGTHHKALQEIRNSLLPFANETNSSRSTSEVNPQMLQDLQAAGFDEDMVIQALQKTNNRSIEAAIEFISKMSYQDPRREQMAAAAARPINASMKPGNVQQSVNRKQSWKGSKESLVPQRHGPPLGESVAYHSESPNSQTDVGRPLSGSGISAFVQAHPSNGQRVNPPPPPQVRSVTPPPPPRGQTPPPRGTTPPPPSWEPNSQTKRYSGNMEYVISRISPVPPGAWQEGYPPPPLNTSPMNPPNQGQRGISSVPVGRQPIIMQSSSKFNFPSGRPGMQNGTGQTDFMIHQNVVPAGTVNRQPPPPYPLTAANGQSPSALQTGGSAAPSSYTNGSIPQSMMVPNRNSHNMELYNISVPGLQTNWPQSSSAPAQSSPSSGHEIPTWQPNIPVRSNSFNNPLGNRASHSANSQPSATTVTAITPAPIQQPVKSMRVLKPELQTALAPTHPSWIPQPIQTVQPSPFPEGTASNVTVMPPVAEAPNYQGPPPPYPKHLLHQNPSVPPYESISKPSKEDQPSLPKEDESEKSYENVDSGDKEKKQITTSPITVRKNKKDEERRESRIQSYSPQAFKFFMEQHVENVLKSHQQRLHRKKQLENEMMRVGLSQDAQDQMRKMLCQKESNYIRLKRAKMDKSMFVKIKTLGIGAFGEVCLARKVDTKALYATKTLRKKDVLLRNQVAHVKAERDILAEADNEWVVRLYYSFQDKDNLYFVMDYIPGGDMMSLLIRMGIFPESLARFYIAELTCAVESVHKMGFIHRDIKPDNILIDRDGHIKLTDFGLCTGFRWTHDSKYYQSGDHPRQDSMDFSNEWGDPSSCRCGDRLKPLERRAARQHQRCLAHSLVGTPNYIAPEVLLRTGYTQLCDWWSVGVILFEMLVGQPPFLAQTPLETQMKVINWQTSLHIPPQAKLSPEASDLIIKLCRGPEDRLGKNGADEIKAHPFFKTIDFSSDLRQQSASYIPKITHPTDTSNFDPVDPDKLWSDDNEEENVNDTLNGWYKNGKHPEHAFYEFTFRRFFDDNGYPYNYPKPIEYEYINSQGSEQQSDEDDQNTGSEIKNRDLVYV

[3] = target: T2, MLKL (Homo sapiens, UniProt Q8NB16); assay type: cell-based; details: 2 h, labeling site Lys1, peptide […]
T2 sequence (Q8NB16 1-471): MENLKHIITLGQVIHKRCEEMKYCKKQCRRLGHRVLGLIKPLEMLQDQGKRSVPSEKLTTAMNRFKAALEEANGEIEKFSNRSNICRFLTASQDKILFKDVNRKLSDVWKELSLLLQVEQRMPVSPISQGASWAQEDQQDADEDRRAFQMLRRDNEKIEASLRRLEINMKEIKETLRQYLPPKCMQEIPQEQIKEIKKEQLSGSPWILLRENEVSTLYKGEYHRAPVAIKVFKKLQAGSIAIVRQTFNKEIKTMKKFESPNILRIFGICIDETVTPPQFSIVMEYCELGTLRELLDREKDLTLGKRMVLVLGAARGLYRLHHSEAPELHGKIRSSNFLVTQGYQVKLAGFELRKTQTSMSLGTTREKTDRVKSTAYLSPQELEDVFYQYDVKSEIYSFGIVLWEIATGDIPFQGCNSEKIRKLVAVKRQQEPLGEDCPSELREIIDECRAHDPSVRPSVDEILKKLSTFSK

[4] = system: ROCK1, ROCK2; assay type: cell-based, human

What does the source list for `CN1CCN(Cc2ccc(Nc3ncc(Cl)c(Nc4ccccc4S(=O)(=O)N(C)C)n3)cc2)CC1` [TP-0903]?
Inhibition [1]: -3.1%; inhibition at 0.1 µM ([2]; labeling site Lys1, peptide ALYATKTLR): 11.6%; inhibition at 0.1 µM ([2]; labeling site Lys2, peptide DIKPDNILIDR): 7.9%; inhibition at 0.1 µM [3]: -29.6%; Inhibition ([4]; labeling site Lys1, peptide VYAMKLLSK): -8.5%; Inhibition ([4]; labeling site Lys2, peptide DVKPDNMLLDK): -30.5%
